Measurements as given in patent US20040235942A1 (priority 2003, published 2004).

Key:
[1] = requires twice daily dosing; cited from earlier work
[2] = tested on: factor VII activity and prothrombin fragment F1+2; details: in vivo; cited from earlier work
[3] = tested on: patients with idiopathic venous thromboembolism; assay: PREVENT trial: bleeding, mortality, stroke, cancer, myocardial infarction, drug discontinuation; type: in vivo, human
From the text: (§1) All participants were followed for recurrent VTE, major bleeding events, and all-cause mortality.
(§2) All index events were confirmed by objective criteria at the central Clinical Coordinating Center based upon venography, compression ultrasound or MRI reports (for deep vein thrombosis) or by ventilation/perfusion scans, angiograms, or chest computed tomography scans (for pulmonary embolism). Idiopathic events were defined as those not occurring within 90 days of surgery, trauma, or a diagnosis of metastatic cancer. […] Every patient gave written informed consent and the study protocol was approved by each institutional review board.
(§3) Randomization was stratified by clinical site, time since index event (≦6 months, >6 months) and by whether the index event was the patient's first ever VTE. All participants were then followed with office visits once every two months that included blinded INR evaluations and dose adjustments. To further ensure blinding, sham dose adjustments were made in the placebo group.
(§4) As PREVENT was specifically designed to evaluate clinically relevant recurrent thromboembolic events, no surveillance for asymptomatic thrombosis was undertaken. Rather, at each visit the occurrence of any incident clinical events since the last visit two months earlier was evaluated. All endpoints were reviewed by a committee of physicians unaware of study drug assignment. The endpoint of recurrent deep vein thrombosis was confirmed if there was a positive venography study, doppler compression ultrasound, or MRI. Events documented by clinical diagnosis alone were not confirmed. […] Major hemorrhage was defined as any bleeding episode that led either to hospitalization or transfusion.
(§5) As an index of net clinical benefit, we defined on an a priori basis a composite endpoint of recurrent VTE, major hemorrhage, and all-cause mortality. Incident stroke events were also monitored. These were classified as hemorrhagic or thromboembolic on the basis of clinical records or CT/MRI scanning which were available for all episodes. To avoid double-counting, hemorrhagic strokes were considered as major hemorrhages in analyses using the combined endpoint of recurrent thrombosis, major hemorrhage, and all-cause mortality.
The method of Kaplan and Meier was used to estimate the probability of recurrence by time within treatment groups. Estimation of the number of patients needed to treat (NNT) to prevent one recurrent event was based on rates at one year. […] The hypothesis of a varying effect of treatment over time was tested in a proportional hazards model including an interaction of treatment with time. Tests and estimates of treatment effects on the composite endpoint used the same methods.

[4] = tested on: patients with idiopathic venous thromboembolism; assay: PREVENT trial: recurrent venous thromboembolism; type: in vivo, human
From the text: as §1, §2
The run-in phase was also used to exclude individuals with less than 80 percent compliance.
as §3, §4
Comparisons between the warfarin and placebo groups in the distributions of continuous variables used Wilcoxon rank sum tests; for categorical variables, comparisons used Chi-square tests. The primary analysis was an intention-to-treat comparison of the difference between time to first confirmed recurrent VTE after randomization in the two treatment arms using a two-sided log-rank test. The method of Kaplan and Meier was used to estimate the probability of recurrence by time within treatment groups. Estimation of the number of patients needed to treat (NNT) to prevent one recurrent event was based on rates at one year. We used the proportional hazards model for estimation of the relative hazard of recurrent VTE associated with low-intensity warfarin treatment and obtained confidence intervals from this model. The hypothesis of a varying effect of treatment over time was tested in a proportional hazards model including an interaction of treatment with time. Tests and estimates of treatment effects on the composite endpoint used the same methods.
The primary pre-specified subgroup analysis evaluated the effect of treatment separately in persons with and without either factor V Leiden or the prothrombin mutation. The hypothesis of a different effect of treatment by genetic status was tested in a proportional hazards model including the interaction of treatment with the presence of either factor V Leiden or G20210A prothrombin mutation. Other descriptive comparisons within subgroups used the same methods.

[5] = tested on: patients with idiopathic venous thromboembolism; assay: PREVENT trial: composite endpoint of recurrent VTE, major hemorrhage and all-cause mortality; type: in vivo, human
From the text: as §1, §5
Comparisons between the warfarin and placebo groups in the distributions of continuous variables used Wilcoxon rank sum tests; for categorical variables, comparisons used Chi-square tests. The primary analysis was an intention-to-treat comparison of the difference between time to first confirmed recurrent VTE after randomization in the two treatment arms using a two-sided log-rank test. The method of Kaplan and Meier was used to estimate the probability of recurrence by time within treatment groups. Estimation of the number of patients needed to treat (NNT) to prevent one recurrent event was based on rates at one year. […]

[6] = tested on: International Normalized Ratio; assay: PREVENT trial: blinded INR evaluation (CoaguChek fingerstick); type: in vivo, human; details: during follow-up; interquartile range 1.4 to 2.0
From the text: During the run-in, at randomization, and throughout follow-up, all INR assessments at each study site were made using specially designed fingerstick devices with an identical thromboplastin [International Sensitivity Index 2.0] (CoaguChek, Roche Diagnostics, Indianapolis, Ind.). These devices were altered electronically to provide a coded study value which was transmitted to the Data Coordinating Center. All dose adjustments were made in a blinded manner using a simple clinical algorithm (Appendix A).
as §3

## CCOC(=O)CN[C@@H](C(=O)N1CC[C@H]1C(=O)NCc1ccc(/C(N)=N\O)cc1)C1CCCCC1 [ximelagatran]
[1]
  half-life: relatively short

## CC(=O)CC(c1ccccc1)c1c(O)c2ccccc2oc1=O (centres unmarked) [low-intensity warfarin, warfarin]
[2]
  reducing biochemical markers of coagulation such as factor VII activity and levels of prothrombin fragment F1+2: effective
[3]; in vivo
  Cancer, Rate: 0.7 events per 100 person years
  Deaths, Rate: 0.7 events per 100 person years
  Major bleeding, Rate: 0.9 events per 100 person years
  Myocardial Infarction, Rate: 0.5 events per 100 person years
  confirmed strokes: 1
  patients in whom study drug was discontinued before completion of follow-up: 62 patients
[3]; of 5 major bleeds
  major bleeds that were gastrointestinal: 3
  major bleeds that were hematuria in the setting of renal calculus removal: 1
  major bleeds that were lower-extremity hematoma: 1
[3]; patient was receiving full-dose warfarin at the time of the bleed
  major hemorrhage requiring transfusion of packed red blood cells: 1
[4]; analysis by use or non-use of long-term anticoagulation at the time of the recurrent event
  reduction in risk of recurrent VTE: 81%
[4]; in vivo
  participants with recurrent VTE after cessation of study drug: 7
[4]; intention-to-treat
  Recurrent VTE, Rate: 2.6 events per 100 person years
[4]; men
  reduction in risk of recurrent VTE: 53%
[4]; subgroup: Factor V Leiden or Prothrombin Mutation absent
  Recurrent VTE, Rate: 2.7 events per 100 person years
[4]; subgroup: Factor V Leiden or Prothrombin Mutation present
  Recurrent VTE, Rate: 2.2 events per 100 person years
[4]; subgroup: age 30-44 years
  Recurrent VTE, Rate: 3.3 events per 100 person years
[4]; subgroup: age 45-64 years
  Recurrent VTE, Rate: 1.7 events per 100 person years
[4]; subgroup: age 65-89 years
  Recurrent VTE, Rate: 3.9 events per 100 person years
[4]; subgroup: men
  Recurrent VTE, Rate: 4.0 events per 100 person years
[4]; subgroup: women
  Recurrent VTE, Rate: 1.1 events per 100 person years
[4]; those without factor V Leiden or the prothrombin mutation
  risk reduction of recurrent VTE: 58%
[4]; time after randomization >1 year
  Recurrent VTE, Rate: 2.5 events per 100 person years
[4]; time after randomization ≦1 year
  Recurrent VTE, Rate: 2.7 events per 100 person years
[4]; treated for one year, based on rates at one year
  patients needed to be treated to prevent one recurrent event: 14 patients
[4]; versus placebo, intention-to-treat
  risk reduction of recurrent VTE: 64%
[4]; women
  reduction in risk of recurrent VTE: 80%
[5]; first VTE, major bleed, or death
  Composite Endpoint, Rate: 4.1 events per 100 person years
[5]; versus placebo
  reduction in composite study endpoint of recurrent VTE, major hemorrhage, or death: 48%
[6]
  median INR: 1.7
